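Five compound concentrations were applied to cells in 96-well plates for 48 hours; endpoints were derived by simple linear interpolation of the resulting dose-response curve. Abbreviation: GI50, concentration required for 50% inhibition of growth. At the TGI there is no net growth.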
Legend:
Assay in all cases: growth of human tumour cells (NCI), 48 h
SK-MEL-28 melanoma = test system: SK-MEL-28 melanoma
HL-60(TB) leukemia = test system: HL-60(TB) leukemia
BT-549 breast = test system: BT-549 breast
SF-539 CNS = test system: SF-539 CNS
UACC-257 melanoma = test system: UACC-257 melanoma
NCI-H226 lung = test system: NCI-H226 lung
SNB-75 CNS = test system: SNB-75 CNS
M14 melanoma = test system: M14 melanoma
EKVX NSCLC = test system: EKVX NSCLC
HCC-2998 colon = test system: HCC-2998 colon

`COc1ccc2c(c1)C1(C(=O)N2)C(C#N)=C(c2ccccc2)Nc2c1c(-c1ccccc1)nn2-c1ccccc1` (stereo not given) gave a GI50 (SK-MEL-28 melanoma) of 2210 nM, a TGI (SK-MEL-28 melanoma) of 5.4 µM and a GI50 (HL-60(TB) leukemia) of 3680 nM. It also gave a TGI (HL-60(TB) leukemia) of 15.4 µM, a GI50 (BT-549 breast) of 2280 nM and a TGI (BT-549 breast) of 8.03 µM. For the same compound, the GI50 (SF-539 CNS) was 1750 nM, the TGI (SF-539 CNS) was 3.65 µM and the GI50 (UACC-257 melanoma) was 16 µM. It also gave a TGI (UACC-257 melanoma) of 31.5 µM, a GI50 (NCI-H226 lung) of 3800 nM and a TGI (NCI-H226 lung) of 16.4 µM. For the same compound, the GI50 (SNB-75 CNS) was 1390 nM, the TGI (SNB-75 CNS) was 3.43 µM and the GI50 (M14 melanoma) was 2440 nM. It also gave a TGI (M14 melanoma) of 7.32 µM, a GI50 (EKVX NSCLC) of 4.44 µM and a TGI (EKVX NSCLC) of 22.2 µM. It also gave a GI50 (HCC-2998 colon) of 3.51 µM and a TGI (HCC-2998 colon) of 12.5 µM.
Work on `Fc1ccc2[nH]cc(SSc3c[nH]c4ccc(F)cc34)c2c1` yielded a GI50 (SK-MEL-28 melanoma) of 5710 nM, a TGI (SK-MEL-28 melanoma) of 20.3 µM and a GI50 (HL-60(TB) leukemia) of 1830 nM. For the same compound, the TGI (HL-60(TB) leukemia) was 6.57 µM, the GI50 (BT-549 breast) was 4940 nM and the TGI (BT-549 breast) was 24.4 µM. It also gave a GI50 (SF-539 CNS) of 3770 nM, a TGI (SF-539 CNS) of 14.7 µM and a GI50 (UACC-257 melanoma) of 8.51 µM. For the same compound, the TGI (UACC-257 melanoma) was 25.3 µM, the GI50 (NCI-H226 lung) was 2700 nM and the TGI (NCI-H226 lung) was 7.86 µM. It also gave a GI50 (SNB-75 CNS) of 3120 nM, a TGI (SNB-75 CNS) of 15.9 µM and a GI50 (M14 melanoma) of 5290 nM. The TGI (M14 melanoma) was greater than 100 µM, the GI50 (EKVX NSCLC) was 3.03 µM and the TGI (EKVX NSCLC) was 15.7 µM. It also gave a GI50 (HCC-2998 colon) of 6.34 µM and a TGI (HCC-2998 colon) of 23.3 µM.
`Cc1c(N=Cc2ccc(N(CCC#N)CCC#N)cc2)c(=O)n(-c2ccccc2)n1C` showed a TGI (SK-MEL-28 melanoma) greater than 100 µM, a TGI (HL-60(TB) leukemia) greater than 100 µM and a TGI (BT-549 breast) greater than 100 µM. The TGI (SF-539 CNS) was 86.5 µM, the TGI (UACC-257 melanoma) was greater than 100 µM and the TGI (NCI-H226 lung) was greater than 100 µM. The TGI (SNB-75 CNS) was 60.1 µM, the TGI (M14 melanoma) was greater than 100 µM and the TGI (EKVX NSCLC) was greater than 100 µM. For the same compound, the TGI (HCC-2998 colon) was greater than 100 µM.
`Cc1cc(=O)oc2cc(OS(C)(=O)=O)ccc12` gave a TGI (SK-MEL-28 melanoma) greater than 100 µM, a TGI (HL-60(TB) leukemia) greater than 100 µM and a TGI (BT-549 breast) greater than 100 µM. For the same compound, the TGI (SF-539 CNS) was greater than 100 µM, the TGI (UACC-257 melanoma) was greater than 100 µM and the TGI (NCI-H226 lung) was greater than 100 µM. It also gave a TGI (SNB-75 CNS) greater than 100 µM, a TGI (M14 melanoma) greater than 100 µM and a TGI (EKVX NSCLC) greater than 100 µM. The TGI (HCC-2998 colon) was greater than 100 µM.
`NC(=O)c1ccc2nc3c(n2c1)C(=O)C(=O)c1ccccc1-3` showed a GI50 (SK-MEL-28 melanoma) of 1070 nM, a TGI (SK-MEL-28 melanoma) of 2.29 µM and a GI50 (HL-60(TB) leukemia) of 2120 nM. It also gave a TGI (HL-60(TB) leukemia) of 5.18 µM, a GI50 (BT-549 breast) of 1360 nM and a TGI (BT-549 breast) of 2.65 µM. For the same compound, the GI50 (SF-539 CNS) was 621 nM, the TGI (SF-539 CNS) was 1.85 µM and the GI50 (UACC-257 melanoma) was 0.57 µM. The TGI (UACC-257 melanoma) was 1.78 µM, the GI50 (NCI-H226 lung) was 1710 nM and the TGI (NCI-H226 lung) was 3.8 µM. For the same compound, the GI50 (SNB-75 CNS) was 1560 nM, the TGI (SNB-75 CNS) was 2.92 µM and the GI50 (M14 melanoma) was 381 nM. For the same compound, the TGI (M14 melanoma) was 1.23 µM, the GI50 (EKVX NSCLC) was 1.65 µM and the TGI (EKVX NSCLC) was 3.01 µM. It also gave a GI50 (HCC-2998 colon) of 1.6 µM and a TGI (HCC-2998 colon) of 3.13 µM.

— PubChem BioAssay (NCI)
